Measured values reported in paper PMC5923120, “Acylhydrazones as Antifungal Agents Targeting the Synthesis of Fungal Sphingolipids” (Antimicrobial Agents and Chemotherapy, 2018).

Tests used:
[1] = human, with NADPH
Procedure: To test for metabolic stability, 40 μl of 10 mM NADPH solution was added to each well of a 96-well plate. The final concentration of NADPH was 1 mM. The mixture was prewarmed at 37°C for 5 min. The negative-control samples were prepared by replacing NADPH solutions with 40 μl of ultrapure H2O. The negative control was used to exclude the misleading factor that resulted from the instability of the chemical itself. Samples with NADPH were prepared in duplicate. Negative controls were prepared in singlet. The reaction was started with the addition of 4 μl of 200 μM control compound or test compound solutions. […] An aliquot of 90 μl of the supernatant was mixed with 90 μl of ultrapure H2O and then used for LC-MS/MS analysis.

P. murina = assay: Murine model of pneumocystosis; format: in vivo, mice; conditions: i.p. 7.2 mg/kg/day
Procedure: C3H/HeN mice ordered from the National Cancer Institute were infected with P. murina pneumonia through exposure to mice with a fulminant P. murina infection (seed mice). These mice are immune suppressed by the addition of dexamethasone at 4 mg/liter to the drinking water. Sulfuric acid at 1 ml/liter was also added to the drinking water for disinfection. The seed mice were rotated within the cages for 2 weeks and then removed. After the mice had developed a moderate infection level (approximately 5 weeks), the mice were divided into a negative-control group (control steroid), positive-control group (trimethoprim-sulfamethoxazole), and D13 group. Compound was solubilized in DMSO for a stock solution of 50 mg/ml. Compound was refrigerated before and after solubilization. Stock solution was diluted in PBS to a final concentration of 1.8 mg/ml. Mice were intraperitoneally (i.p.) injected with 100 μl of diluted stock for a total dose of approximately 180 μg/day or 7.2 mg/kg/day based on average mouse weights of 25 g. […] Slides were made from the lung homogenates at different dilutions and stained with Diff-Quik to quantify the trophic forms and cresyl echt violet to quantify the asci. Efficacy is based on the reduction of organism burden between the treatment groups and the negative-control group as determined by microscopic evaluation.

O=C(N/N=C/c1cc(Br)cc(Br)c1O)c1ccc(Br)cc1 [D13]
% remaining at 60 min [1]: 64.95%
number of asci or nuclei in lung homogenates (P. murina; untreated versus treated mice): No differences
survival (P. murina; versus negative control): did not show better survival
